Reference: patent US7629348B2, “Heterocyclic amide and imine derivatives, processes for their preparation, compositions comprising them and their use as pesticides” (Merial Limited, priority 2001, dated 2009)

Experiments:
[1] = system: black bean aphids (Aphis fabae); test: Root-systemic test: solution pipetted into bottle with field bean (Vicia faba), aphid mortality; conditions: 4 ml aqueous solution pipetted into bottle; after 3 and 6 days of storage; concentration 500 ppm or less
Experimental: Germinated field bean seeds (Vicia faba) with seed roots were transferred into brown glass bottles filled with tap water. Four milliliters of an aqueous solution of the formulated preparation to be examined were pipetted into the brown glass bottle. The field bean was then heavily populated with about 100 black bean aphids (Aphis fabae). Plants and aphids were then stored in a climatized chamber (16 hours of light/day, 25° C., 40-60% relative atmospheric humidity). After 3 and 6 days of storage, the root-systemic effect of the preparation as aphid mortality was determined.

[2] = system: black bean aphids (Aphis fabae); test: Dip test: field bean plants (Vicia faba) and aphids dipped into solution of preparation, aphid mortality; conditions: plants and aphids dipped 5 seconds; after 3 and 6 days of storage; concentration 500 ppm or less
Experimental: Germinated field bean seeds (Vicia faba) with seed roots were transferred into brown glass bottles filled with tap water and then populated with about 100 black bean aphids (Aphis fabae). Plants and aphids were then dipped into an aqueous solution of the formulated preparation to be examined for 5 seconds. After they had drained, plants and animals were stored in a climatized chamber (16 hours of light/day, 25° C., 40-60% relative atmospheric humidity). After 3 and 6 days of storage, the mortality of the preparation on the aphids was determined.

| SMILES | root-systemic effect of the preparation as aphid mortality [1] | mortality of the preparation on the aphids [2] |
| --- | --- | --- |
| O=C(NSC1CCCC1)c1cnccc1C(F)(F)F [Example 1] | active | active |
| O=C(NSc1ccccc1)c1cnccc1C(F)(F)F [Example 2] | active | active |
| CCN(Sc1ccccc1)C(=O)c1cnccc1C(F)(F)F [Example 3] | active | active |
| CC(C)N(Sc1ccccc1)C(=O)c1cnccc1C(F)(F)F [Example 4] | active | active |
| Cc1ccc(SN(C(=O)c2cnccc2C(F)(F)F)C(C)C)cc1 [Example 6] | active | active |
| O=C(NSc1ccc(Cl)cc1)c1cnccc1C(F)(F)F [Example 18] | active | active |
| O=C(NSc1ccc(F)cc1)c1cnccc1C(F)(F)F [Example 23] | active | active |
| CC(C)SNC(=O)c1cnccc1C(F)(F)F [Example 29] | active | active |
| CCC(C)CSNC(=O)c1cnccc1C(F)(F)F (stereo not shown) [Example 38] | active | active |
| C=CCSNC(=O)c1cnccc1C(F)(F)F [Example 44] | active | active |
| CC(C)CCSNC(=O)c1cnccc1C(F)(F)F [Example 45] | active | active |
| CCCCCSNC(=O)c1cnccc1C(F)(F)F [Example 48] | active | active |
| CCCCCCSNC(=O)c1cnccc1C(F)(F)F [Example 49] | active | active |
| CCCCCCCSNC(=O)c1cnccc1C(F)(F)F [Example 50] | active | active |
| O=C(NSCc1ccc(C(F)(F)F)cc1)c1cnccc1C(F)(F)F [Example 84] | active | active |
| O=C(NSCc1cccc(C(F)(F)F)c1)c1cnccc1C(F)(F)F [Example 85] | active | active |
| O=C(NSC1CC1)c1cnccc1C(F)(F)F [Example 98] | active | active |
| CC(C)SN=C(OCCC(C)[N+](=O)[O-])c1cnccc1C(F)(F)F (stereo not shown) [Example 124] | active | active |
| O=C(NSC1CCCCC1)c1cnccc1C(F)(F)F [Example A, N-cyclohexylthio-(4-trifluoromethyl)nicotinamide] | active | active |
| CCC(C)SNC(=O)c1cnccc1C(F)(F)F (stereo not shown) [Example B, N-(2-butylthio)-(4-trifluoromethyl)nicotinamide] | active | active |
